{"source": "paper PMC11931052", "about": "“Efficacy of dispirotripiperazine PDSTP in a golden Syrian hamster model of SARS-CoV-2 infection” (Frontiers in Microbiology, 2025)", "system": "SARS-CoV-2 BA.4/5 variant", "type": "cell-based", "details": "Calu-3 cells; PDSTP 20 and 4 μM; plaque assay", "data": [{"smiles": "Cc1nc(N2CC[N+]3(CC2)CC[N+]2(CCNCC2)CC3)c([N+](=O)[O-])c(N2CC[N+]3(CC2)CC[N+]2(CCNCC2)CC3)n1.Cl.Cl.O.O.O.O.O.O.O.O.O.[Cl-].[Cl-].[Cl-].[Cl-]", "note": "[PDSTP, 3,3′-(2-methyl-5-nitropyrimidine-4,6-diyl)bis-3,12-diaza-6,9-diazonia-dispiro[5.2.5.2]hexadecane tetrachloride dihydrochloride nonahydrate]", "values": [{"measurement": "Effect on viral titers, BA.4/5 variant", "value": "strongly reduce viral titers"}]}]}
